The record followed here is ChEMBL document CHEMBL1134891, “Design and synthesis of conformationally restricted eight-Membered ring diketones as potential serine protease inhibitors” (Bioorg Med Chem Lett, 2002).

In experiment [1] the target is Urokinase-type plasminogen activator (Homo sapiens) (UniProt P00749). The experiment can be described thus: Compound was tested for percentage inhibition of urokinase in enzyme rate assays. The settings on record: concentration not given here.
Experiment [2] deals with Plasminogen (Homo sapiens) (UniProt P00747). The experiment can be described thus: Compound was tested for percentage inhibition of plasmin in enzyme rate assays. To be noted: concentration not given here.
Experiment [3] addresses Urokinase-type plasminogen activator (Homo sapiens) (UniProt P00749). Briefly: Compound was tested for percentage inhibition of urokinase in enzyme rate assays; NI denotes no significant inhibition at 100 uM.
For experiment [4], the target named is Plasminogen (Homo sapiens) (UniProt P00747). Briefly: Compound was tested for percentage inhibition of plasmin in enzyme rate assays; NI denotes no significant inhibition at 100 uM.

Chain of Plasminogen (Homo sapiens) (P00747 97-580 limits assumed): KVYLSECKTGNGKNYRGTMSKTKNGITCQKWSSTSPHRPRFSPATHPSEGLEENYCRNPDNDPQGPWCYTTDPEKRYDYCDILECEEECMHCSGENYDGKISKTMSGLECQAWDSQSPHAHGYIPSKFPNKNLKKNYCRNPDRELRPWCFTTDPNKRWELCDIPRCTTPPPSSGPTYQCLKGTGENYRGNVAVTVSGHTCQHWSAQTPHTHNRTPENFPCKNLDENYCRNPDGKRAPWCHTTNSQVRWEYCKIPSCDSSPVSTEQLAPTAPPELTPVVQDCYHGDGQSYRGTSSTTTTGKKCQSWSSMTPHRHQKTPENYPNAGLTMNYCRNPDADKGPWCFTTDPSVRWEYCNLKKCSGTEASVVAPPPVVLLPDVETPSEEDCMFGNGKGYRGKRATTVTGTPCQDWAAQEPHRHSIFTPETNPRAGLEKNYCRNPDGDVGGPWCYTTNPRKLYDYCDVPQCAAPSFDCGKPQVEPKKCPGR
Chain of Plasminogen (Homo sapiens) (P00747 581-810 limits assumed): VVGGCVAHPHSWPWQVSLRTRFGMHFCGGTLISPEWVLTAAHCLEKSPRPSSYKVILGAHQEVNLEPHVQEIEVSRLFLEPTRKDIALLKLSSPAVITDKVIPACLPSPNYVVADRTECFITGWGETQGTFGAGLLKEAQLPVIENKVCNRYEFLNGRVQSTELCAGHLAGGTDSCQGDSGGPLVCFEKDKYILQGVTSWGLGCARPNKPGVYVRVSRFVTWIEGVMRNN

With `CC(=O)N[C@]1(C)CC[C@]2(C)[C@H](C)CC[C@]3(CCC(=O)[C@H]32)C(=O)C1=O`, the inhibition in experiment [1] was 28%; in experiment [2], 25%.

Turning to `CC[C@]1(C)CC[C@]2(C)[C@H](C)CC[C@]3(CCC(=O)[C@H]32)C(=O)C1=O`, the inhibition result in experiment [3] and in experiment [4] was “No inhibition” throughout.
